# “Also recorded” adds a separate entry of the source.
# Tests used:
# [1] = system: human pancreatic cancer BxPC-3 tumor cells; experiment: Human xenograft mouse animal model, pancreatic cancer BxPC-3; type: in vivo; conditions: 80 mg/kg intraperitoneally, starting 28 days after inoculation; compared to vehicle control group; FIG. 5
# Method: The anti cancer activity of a compound according to the invention, 6-[3-(1-adamantyl)-4,5-methylenedioxyphenyl]-2-naphthoic acid was also evaluated in a human xenograft mouse animal model containing human pancreatic cancer BxPC-3 tumor cells. Starting twenty-eight days after inoculation of tumor cells, said xenograft containing mice were administered the retinoid compound intraperitoneally at a dosage of 80 mg/kg body weight. Also, a control group of said mice was inoculated under similar conditions with the pharmaceutical vehicle used for formulation (but lacking the retinoid compound).
# cancer cells = experiment: List of active compounds: types of cancers and precancers active against; type: cell-based
# Excerpt: As discussed, the adamantyl retinoid derivatives according to the invention which induce apoptosis are useful for treating many different types of cancers.
# [2] = system: human cervical cancer cell lines (C33A cells and Caski cells); experiment: Proliferation of human cervical cancer cell lines (Example 33, FIG. 7); type: cell-based
# Method: Another experiment was also conducted to compare the effect of three different retinoid compounds according to the invention, i.e., 6-[3-(1-adamantyl)-4-methoxyphenyl]-2-naphthoic acid, 2-[3-(1-adamantyl)-4-methoxyphenyl]-5-benzimidazole carboxylic acid, and 6-[3-(1-adamantyl)-4,5-methylenedioxyphenyl]-2-naphthoic acid, a control (DMSO), and a control retinoid (all-trans retinoic acid) on the proliferation of several human cervical cancer cell lines (C33A cells and Caski cells).
# [3] = system: various human cancer cell lines; experiment: Anti-cancer activity against human cancer cell lines over a concentration range (FIGS. 2-4); type: cell-based; conditions: retinoid concentrations 10^−9 M to 10^−5 M
# Excerpt: FIG. 2 compares the activity of selected adamantyl retinoids according to the invention and all-trans-retinoic acid against a human non-small lung carcinoma cell line.
# FIG. 3 compares the activity of selected adamantyl retinoids according to the invention and all-trans-retinoic acid against human prostate adenocarcinoma, human metastatic prostate adenocarcinoma, and human prostate carcinoma cell lines.
# FIG. 4 compares the activity of selected adamantyl retinoids according to the invention and all-trans-retinoic acid against a human liver cancer cell line.
# [4] = system: cervical cancer cell lines; experiment: Apoptosis, cellular DNA fragmentation ELISA (FIG. 8); type: cell-based, human; conditions: eighteen hours; adapalene 1, 5 and 10 μM, tRA 10 μM, ceramide 0.5 mM
# Method: In this experiment cells were labeled with BrdU for six hours. After labeling, cells were treated with vehicle (DM50), or with 10 μM tRA, 0.5 mM ceramide or doses of adapalene of 1, 5 and 10 μM for eighteen hours. Apoptosis was measured using a cellular DNA fragmentation ELISA kit (available from Boehringer). […] Therein, one unit represents the value obtained from cells grown in the presence of vehicle alone.
# [5] = system: panel of human tumor cell lines; experiment: Cell-based high throughput screening assays, percentage of surviving cells; conditions: active = percentage survival of less than 80; FIG. 1
# Method: The anti-cancer activity of various adamantyl retinoid compounds according to the invention was compared to all-trans-retinoic acid using cell-based high throughput screening assays. Specifically, the following compounds were tested in such assays: all-trans-retinoic acid, 6[3(1-adamantyl)-4-methoxyphenyl]-2-naphthoic acid, 2-[3-(1-adamantyl)-4-methoxyphenyl]-5-benzimidazole carboxylic acid, 6-[3-(1-adamantyl)-4-hydroxy-5-methoxyphenyl]-2-naphthoic acid, 6-[3-(1-adamantyl)-4-acetoxymethylphenyl]-2-naphthoic acid and 6-[3-(1-adamantyl)-4,5-methylenedioxyphenyl]-2-naphthoic acid.
# These compounds were tested against a panel of human tumor cell lines having a variety of tissue origins, and having distinct tumor characteristics. The tumor cell cultures were exposed to the above retinoid compounds for a specific duration. After such exposure, the percentage of surviving cells was then measured using standard assays.
Compound,tumor size [1],Types of Cancers and Precancers Active Against (cancer cells),effect on proliferation of human cervical cell lines [2],anti-cancer activity [3],induction of apoptosis [4],activity against human cancers (percentage of surviving cells) [5]
"O=C(O)c1ccc2cc(-c3cc4c(c(C56CC7CC(CC(C7)C5)C6)c3)OCO4)ccc2c1 [Compound 6, 6-[3-(1-adamantyl)-4,5-methylenedioxyphenyl]-2-naphthoic acid]",substantial reduction in tumor size,"brain, breast, head and neck,; also recorded: kidney, leukemia, lung, lym-; also recorded: phoma, myeloma, ovarian,; also recorded: prostate, skin, liver, cervical; also recorded: (including, e.g., cervical; also recorded: intraepithelial neoplasia I, II,; also recorded: III),",strong inhibitory effect,significant anti-cancer activity,,
"CC1=C(/C=C/C(C)=C/C=C/C(C)=C/C(=O)O)C(C)(C)CCC1 [all-trans-retinoic acid, reference compound]",,,no significant effect on cell proliferation,did not exhibit similar activity,did not induce apoptosis significantly,did not give comparable results
